Results: ChEMBL document CHEMBL3627624, “New natural product carbonic anhydrase inhibitors incorporating phenol moieties” (Bioorg Med Chem, 2015)

Key:
Carbonic anhydrase 1 [1] = biological target: T1, Carbonic anhydrase 1 (Homo sapiens, UniProt P00915); experiment: Inhibition of human recombinant carbonic anhydrase 1 preincubated for 15 mins at room temperature/6 hrs at 4 deg C by stopped-flow CO2 hydration assay
Carbonic anhydrase 2 [2] = biological target: T2, Carbonic anhydrase 2 (Homo sapiens, UniProt P00918); experiment: Inhibition of human recombinant carbonic anhydrase 2 preincubated for 15 mins at room temperature/6 hrs at 4 deg C by stopped-flow CO2 hydration assay
Carbonic anhydrase 4 [3] = biological target: T3, Carbonic anhydrase 4 (Homo sapiens, UniProt P22748); experiment: Inhibition of human recombinant carbonic anhydrase 4 preincubated for 15 mins at room temperature/6 hrs at 4 deg C by stopped-flow CO2 hydration assay
T3 sequence (P22748 whole entry): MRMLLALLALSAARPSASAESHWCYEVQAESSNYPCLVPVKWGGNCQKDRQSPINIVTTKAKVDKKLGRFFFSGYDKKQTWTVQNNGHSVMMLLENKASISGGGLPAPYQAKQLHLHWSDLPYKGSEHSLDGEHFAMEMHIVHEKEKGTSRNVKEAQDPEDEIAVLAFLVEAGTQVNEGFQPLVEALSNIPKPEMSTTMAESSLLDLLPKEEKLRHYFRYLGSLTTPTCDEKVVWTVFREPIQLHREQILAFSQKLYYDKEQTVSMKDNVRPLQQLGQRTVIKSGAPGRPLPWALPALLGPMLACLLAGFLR

Carbonic anhydrase 7 = Carbonic anhydrase 7 (Homo sapiens, UniProt P43166); experiment: Inhibition of human recombinant carbonic anhydrase 7 preincubated for 15 mins at room temperature/6 hrs at 4 deg C by stopped-flow CO2 hydration assay
Sequence of Carbonic anhydrase 7 (P43166 whole entry): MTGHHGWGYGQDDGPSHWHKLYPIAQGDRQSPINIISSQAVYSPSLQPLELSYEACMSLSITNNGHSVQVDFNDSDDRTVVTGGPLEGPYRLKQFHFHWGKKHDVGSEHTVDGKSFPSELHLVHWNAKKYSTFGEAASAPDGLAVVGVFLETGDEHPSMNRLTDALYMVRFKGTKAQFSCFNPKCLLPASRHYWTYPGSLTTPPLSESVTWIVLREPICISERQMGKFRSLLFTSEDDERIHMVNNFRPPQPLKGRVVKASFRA

Carbonic anhydrase 12 [4] = biological target: T4, Carbonic anhydrase 12 (Homo sapiens, UniProt O43570); experiment: Inhibition of human recombinant carbonic anhydrase 12 preincubated for 15 mins at room temperature/6 hrs at 4 deg C by stopped-flow CO2 hydration assay
T4 sequence (O43570 whole entry): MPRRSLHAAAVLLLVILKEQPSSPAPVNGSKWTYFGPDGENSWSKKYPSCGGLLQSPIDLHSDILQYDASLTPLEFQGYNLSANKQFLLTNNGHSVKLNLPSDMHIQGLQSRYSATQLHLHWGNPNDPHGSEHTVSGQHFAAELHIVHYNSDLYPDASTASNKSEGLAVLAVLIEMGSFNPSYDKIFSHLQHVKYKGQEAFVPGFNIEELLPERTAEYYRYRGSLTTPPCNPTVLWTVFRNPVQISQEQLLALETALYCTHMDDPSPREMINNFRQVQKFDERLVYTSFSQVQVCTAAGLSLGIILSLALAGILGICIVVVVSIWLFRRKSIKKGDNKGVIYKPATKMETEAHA

Carbonic anhydrase 1 [5] = biological target: T1, Carbonic anhydrase 1; experiment: Inhibition of human recombinant carbonic anhydrase 1
Carbonic anhydrase 2 [6] = biological target: T2, Carbonic anhydrase 2; experiment: Inhibition of human recombinant carbonic anhydrase 2
Carbonic anhydrase 12 [7] = biological target: T4, Carbonic anhydrase 12; experiment: Inhibition of human recombinant carbonic anhydrase 12
Carbonic anhydrase 4 [8] = biological target: T3, Carbonic anhydrase 4; experiment: Inhibition of human recombinant carbonic anhydrase 4

T1 sequence (P00915 whole entry): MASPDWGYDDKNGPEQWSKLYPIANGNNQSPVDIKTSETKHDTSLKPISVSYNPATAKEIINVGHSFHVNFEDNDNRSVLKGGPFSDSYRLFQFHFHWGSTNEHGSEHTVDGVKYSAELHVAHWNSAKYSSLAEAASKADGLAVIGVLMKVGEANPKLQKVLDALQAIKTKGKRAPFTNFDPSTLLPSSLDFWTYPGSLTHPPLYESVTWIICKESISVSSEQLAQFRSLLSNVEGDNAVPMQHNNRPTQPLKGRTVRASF

Row | SMILES | Ki (Carbonic anhydrase 1 [1]) [µM] | Ki (Carbonic anhydrase 2 [2]) [µM] | Ki (Carbonic anhydrase 4 [3]) [µM] | Ki (Carbonic anhydrase 7) [µM] | Ki (Carbonic anhydrase 12 [4]) [µM] | Ki (Carbonic anhydrase 1 [5]) [µM] | Ki (Carbonic anhydrase 2 [6]) [µM] | Ki (Carbonic anhydrase 12 [7]) [µM] | Ki (Carbonic anhydrase 4 [8]) [µM]
1 | O=C(/C=C/c1ccc(O)cc1)OC[C@H]1O[C@@H](Oc2c(-c3ccc(O)cc3)oc3cc(O)cc(O)c3c2=O)[C@H](O)[C@@H](O)[C@@H]1O [TILIROSIDE] | > 10 | > 10 | 5.47 | 0.0046 | 0.134 |  |  |  | 
2 | O=c1c(-c2ccc(O)cc2)coc2c([C@@H]3O[C@H](CO)[C@@H](O)[C@H](O)[C@H]3O)c(O)ccc12 [PUERARIN] | > 10 | > 10 | > 10 | 0.453 |  |  |  |  | 
3 | O=c1c(-c2ccc(O)cc2)coc2cc(O)ccc12 [DAIDZEIN] | > 10 | > 10 | 0.719 | 0.0042 | 0.0564 |  |  |  | 
4 | COc1cc(-c2oc3cc(O)cc(O)c3c(=O)c2O)ccc1O [ISORHAMNETIN] | > 10 | > 10 | 0.213 | 0.0044 | 0.0549 | > 10 | 0.44 | 0.22 | 
5 | O=C1C[C@@H](c2ccc(O)c(O)c2)Oc2cc(O)cc(O)c21 [ERIODICTYOL] | > 10 | > 10 | 0.0728 | 0.0043 | 0.0311 |  |  |  | 
6 | O=C1C[C@@H](c2ccc(O)cc2)Oc2cc(O)cc(O)c21 [NARINGENIN] | > 10 | > 10 | 0.0795 | 0.0043 | 0.0443 |  |  |  | 
7 | C[C@@H]1O[C@@H](Oc2c(-c3ccc(O)c(O)c3)oc3cc(O)cc(O)c3c2=O)[C@H](O)[C@H](O)[C@H]1O [QUERCETIN-3-O-RHAMNOSIDE] | > 10 | 6.37 | 0.0673 | 0.0039 | 0.0435 |  |  |  | 
8 | O=C1c2c(O)cc(O)cc2O[C@H](c2ccc(O)c(O)c2)[C@H]1O [(+)-TAXIFOLIN] | > 10 |  |  |  |  |  |  |  | 
9 | COc1ccc(-c2coc3cc(O)cc(O)c3c2=O)cc1 [BIOCHANIN] | > 10 | > 10 | 7.08 | 0.372 | 0.0525 |  |  |  | 
10 | O=C(/C=C/c1ccc(O)cc1)OC[C@H]1O[C@@H](Oc2c(-c3ccc(O)cc3)oc3cc(O)cc(O)c3c2=O)[C@H](OC(=O)/C=C/c2ccc(O)cc2)[C@@H](O)[C@@H]1O | > 10 | 8.79 | 0.344 | 0.0047 | 0.409 |  |  |  | 
11 | O=C(/C=C/c1ccc(O)c(O)c1/C=C/c1ccc(O)c(O)c1)O[C@H](Cc1ccc(O)c(O)c1)C(=O)O [SALVIANOLIC ACID A] | > 10 | 9.59 | 0.0666 | 0.0714 | 0.0398 |  |  |  | 
12 | O=C(/C=C/c1ccc(O)c2c1[C@H](C(=O)O)[C@@H](c1ccc(O)c(O)c1)O2)O[C@H](Cc1ccc(O)c(O)c1)C(=O)O [LITHOSPERMIC ACID] | > 10 | > 10 | 0.101 | 0.268 |  |  |  |  | 
13 | O=c1c(O[C@@H]2O[C@H](CO)[C@@H](O)[C@H](O)[C@H]2O)c(-c2ccc(O)cc2)oc2cc(O)cc(O)c12 [ASTRAGALIN] | > 10 | 0.168 | 5.59 | 0.424 | 0.0049 |  |  |  | 
14 | COc1ccc([C@@H]2CC(=O)c3c(O)cc(O)cc3O2)cc1O [HESPERETIN] | > 10 | > 10 | 0.102 | 0.0033 | 0.454 |  |  |  | 
15 | O=c1c(O[C@@H]2O[C@H](CO)[C@@H](O)[C@H](O)[C@H]2O)c(-c2ccc(O)c(O)c2)oc2cc(O)cc(O)c12 [ISOQUERCETIN] | > 10 | 6.21 | 0.0757 | 0.0038 | 0.0521 | > 10 | 0.41 | 0.17 | 
16 | O=c1c(O)c(-c2ccccc2)oc2cc(O)cc(O)c12 [GALANGIN] | > 10 | > 10 | 0.568 | 0.0245 | 0.0418 |  |  |  | 
17 | O=c1c(O)c(-c2ccc(O)cc2)oc2cc(O)cc(O)c12 [KAEMPFEROL] | > 10 | 9.53 | > 10 | 0.025 | 0.146 |  |  |  | 
18 | O=c1cc(-c2ccc(O)c(O)c2)oc2cc(O)cc(O)c12 [LUTEOLIN] | > 10 | 3.69 |  | 0.0047 | 0.0603 |  |  |  | 0.293
19 | CC(=O)O[C@@H]1[C@@H](OC(=O)/C=C/c2ccc(O)cc2)[C@H](Oc2c(-c3ccc(O)cc3)oc3cc(O)cc(O)c3c2=O)O[C@H](COC(=O)/C=C/c2ccc(O)cc2)[C@H]1OC(C)=O | > 10 | 6.86 | 0.0622 | 0.0266 | 0.4 |  |  |  | 
20 | O=c1cc(-c2ccccc2)oc2cc(O)cc(O)c12 [CHRYSIN] | > 10 | > 10 | 0.538 | 0.171 | 0.0347 |  |  |  | 
